Laboratory results: publication PMC7496275, “Pentathiepins: A Novel Class of Glutathione Peroxidase 1 Inhibitors that Induce Oxidative Stress, Loss of Mitochondrial Membrane Potential and Apoptosis in Human Cancer Cells” (Chemmedchem, 2020)

Key:
[1] = tested on: pBR322 plasmid; test: Cleavage of supercoiled plasmid DNA; conditions: 5 μM, 20 h, 37 °C
Method: To assess the potential DNA‐cleaving activity of 4 a plasmid cleavage assay was performed. This method makes use of the different mobilities that plasmids display during electrophoretic separation processes in an agarose gel. An intact supercoiled plasmid has the highest mobility due to its compactness, open circular plasmids (ocDNA), e. g. plasmids with a single strand break, present a lower mobility due to increased friction of this less compact DNA construct. Commercially available DNA plasmids usually present ratios of 95 % supercoiled and 5 % ocDNA. Upon treatment with DNA‐damaging agents this ratio will be shifted towards a higher amount of ocDNA due to single strand breaks, or even linearized DNA in case double strand breaks are induced. […]
Cleavage of supercoiled plasmid DNA: For this assay, 0.3 μg pBR322 plasmid (Thermo Fisher) were incubated with either 0.1 % DMF or 5 μM 4 with or without 2 mM glutathione (GSH) in a 50 mM sodium phosphate buffer at pH 7.5 for 20 h in a 37 °C water bath. Afterwards, the samples were separated on a 1 % agarose (Geneon) gel at 80 V (5 V/cm) for 2 h, stained with GelRed (Biotium) and the image captured and bands quantified using ImageLab (Biorad). The resulting data was analyzed and visualized with Prism 7 (GraphPad).

[2] = tested on: SISO cell line; test: MTT viability with ferrostatin-1 co-treatment (ferroptosis probe); type: cell-based, human; conditions: ferrostatin-1 1.5-6.0 μM, MTT 48 h
Source text: Another form of programmed cell death is ferroptosis, which is iron dependent and activated by lipid peroxidation (LPO) in the cell membrane.14 Unlike apoptosis, PARP cleavage is not observed in this cell death mechanism. GPx4, a membrane bound isoenzyme of GPx1, is believed to be a key protector of cells from ferroptosis by destroying lipid peroxides in the cell membrane.
MTT cell viability assay: For the detection of the inhibition of the viability of cells by the pentathiepins, the MTT‐viability assay was used.37 Briefly, 10 000 and 20 000 cells for the suspension cell lines HL‐60 and Gumbus, respectively, were seeded out in 50 μL medium per well and immediately exposed to the compounds. For the adherent cell lines SISO and HAP‐1, 3000 and 5000 cells, respectively, were seeded out in 96‐well plates and allowed to attach for 24 h. Cells were exposed to nine serial dilutions of compound, added to the medium from 1000‐fold concentrated stock solution in DMF. For the controls, cells were exposed to 0.1 % DMF alone. After 48 h incubation, 20 μL of the MTT stock solution (2.5 mg/mL in PBS) were added to each well to give a final concentration of 1.0 mM. […] Optical density was measured with a SpectraMax Plus 383 microtiter plate read at λ=570 nm (Molecular Devices, USA). […]

[3] = tested on: HAP-1 cells; test: Alkaline comet assay; type: cell-based, human; conditions: 25 μM, 15 min at 0 °C
Method: To assess the induction of DNA strand breaks by pentathiepin 4 the Comet Assay was used. The SISO and HAP‐1 cell lines were treated with either 1 % DMF (solvent control), 20 μM H2O2 (positive control) or 25 μM 4 for 15 min at 0 °C. The DNA in the comet head corresponds to still intact genomic DNA while the tail forms due to the damage of nuclear DNA (Figure 9B). […] For HAP‐1 cells a greater reduction of intact DNA from 86 % in control cells to 66 % in pentathiepin‐incubated cells was observed.
Alkaline comet assay to assess induction of DNA strand breaks: The method was adapted from Olive and Banath.40 The alkaline protocol allows for the detection of single and double strand breaks as well as alkali‐labile sites and is based on the different electrophoretic mobility of intact and damaged nuclear DNA. […] The induction of strand breaks creates free charged ends that drift out and form the characteristic comet tail. The percentage of DNA that is located in the comet head was selected as descriptor, which corresponds to the amount of still intact genomic DNA.
Briefly, SISO and HAP‐1 cells were harvested by trypsinization and a single cell suspension with 50 000 cells per mL PBS was prepared. Per condition 50 000 cells were incubated on ice (to impair DNA repair) with either the solvent control DMF (1.0 %), 20 μM H2O2 or 25 μM 4 for 15 min. Afterwards, 400 μL of the cell suspension were mixed with 1.2 mL 1 % low melting point agarose (Carl Roth, Germany) at 40 °C and evenly distributed on agarose‐precoated (GeneOn, Germany) glass slides (Thermo Fisher). After 3 min polymerization the slides were horizontally submerged in lysis buffer (1.2 M NaCl (Carl Roth, Germany), 0.1 % N‐Lauryl‐Sarcosinate (Merck), 0.1 M Na‐EDTA, 0.26 M NaOH) and placed at 4 °C overnight. Before electrophoresis at 0.6 V/cm for 25 min the slides were rinsed three times in rinse/electrophoresis buffer (0.002 M Na‐EDTA, 0.03 M NaOH). Afterwards, the slides were neutralized in distilled water and subsequently stained with 250 μL of a 10 μg/mL PI in water solution for 20 min. Finally, the slides were analyzed with a Leica DMi8 fluorescent microscope and LASX software (Leica, Germany) and comets were scored with CometScore 2.0 (Rex A. Hoover, www.rexhoover.com). At least 100 comets were scored per condition.

[4] = tested on: HL-60 cells; test: MTT cell viability assay; type: cell-based; conditions: Homo sapiens, 48 h, read-out: IC50 for viability reduction
Method: We determined IC50 values for the viability reduction in a low micro molar range (Figure 6B).
MTT cell viability assay: For the detection of the inhibition of the viability of cells by the pentathiepins, the MTT‐viability assay was used.37 Briefly, 10 000 and 20 000 cells for the suspension cell lines HL‐60 and Gumbus, respectively, were seeded out in 50 μL medium per well and immediately exposed to the compounds. For the adherent cell lines SISO and HAP‐1, 3000 and 5000 cells, respectively, were seeded out in 96‐well plates and allowed to attach for 24 h. Cells were exposed to nine serial dilutions of compound, added to the medium from 1000‐fold concentrated stock solution in DMF. For the controls, cells were exposed to 0.1 % DMF alone. After 48 h incubation, 20 μL of the MTT stock solution (2.5 mg/mL in PBS) were added to each well to give a final concentration of 1.0 mM. The formazan crystals that formed after 4 h at 37 °C were dissolved by sonification after adding 100 μL of 0.04 M HCl in isopropanol for the suspension cell lines, or with 50 μL DMSO after aspiration of the medium for the adherent cell lines. Optical density was measured with a SpectraMax Plus 383 microtiter plate read at λ=570 nm (Molecular Devices, USA). […]

## CCOc1c2c(c3cnc4cc(C)c(C)cc4n13)SSSSS2 [Compound 4]
[1]; with 2 mM GSH
  fraction of damaged plasmid: 19%
[1]; without additional thiol
  fraction of damaged plasmid: 7%
[2]
  change of IC50 on co-treatment with ferrostatin-1: No significant changes in the IC50 value
[3]
  percentage of intact DNA in comet head: 66%
[4]
  IC50: 6.9 µM
